Experimental data from PMC6586287, “Blocking transmembrane219 protein signaling inhibits autophagy and restores normal cell death” (PLoS ONE, 2019).
Entries after “also recorded” stand apart in the source; their conditions may differ.

Assays:
[1] = system: LC3 processing in Vero cells; assay: LC3-II punctate staining, LC3-mRFP transfected Vero cells; format: cell-based
Method: Immunostaining was performed as described previously (44). Briefly, cells were grown on a coverslip overnight at 5×10^5 cells/ml. 1 μl of Hoechst stain (10 μg/μl) was added to the cells for 10 min at 37°C. For tracking TM219 short cytoplasmic peptide assay, we pretreated the cells with the peptides at concentration of 0, 25, or 250 nM, then added 1 μM IGFBP3 for an hour in DMEM serum free medium. Cells were fixed with 4% paraformaldehyde and permeabilized with 1% triton x100. Cells were then blocked overnight with 10% fetal bovine serum (FBS) in PBS. Finally, cells were stained with streptavidin conjugated to Alex555 (Thermofisher Scientific) for 30 minutes in the same blocking buffer. For immunostaining, cells were stained with the primary antibody according to the manufacturer’s recommendation in the same blocking buffer. The cells were washed 10 times with PBS. Cells were blocked for 1 h with 10% FBS and then stained with secondary antibody conjugated to fluorescence dye (Thermofisher Scientific). As controls, we used secondary antibodies alone. Cells were washed 10 times with PBS and mounted with fluoromount G (Microscopic Science) before examination.
We stained the intact cellular mitochondria using TMRM dye according to the provider recommendations (Thermofisher Scientific). To evaluate the cell membrane permeability in 3D culture, we used membrane impermeable dye propodeum iodide (PI), and the membrane permeable dye (Hoechst dye) to stain the cell nuclei according to the manufacturer recommendations (Thermofisher Scientific). For autophagy efflux assay, we used chloroquine (Sigma-Alderish) (CQ) at final concentration of 200 μM as described previously. Collected images were analyzed with ImageJ software.

MDA-MB231 cells = assay: pHLIP-Cy3 insertion, fluorescence microscopy, MDA-MB231 cells in 2D and 3D culture; format: cell-based, human; details: 2D (3 days) and 3D (0.5% low melting agarose, 5 days) culture; 6 h at 37°C in DMEM buffered with PBS
Method: A- MDA-MB231 cells were grown in a complete DMEM medium for 3 days or in 0.5% low melting agarose in complete medium for 5 days were treated with phLIP-Cy3 peptide in DMEM buffered with PBS for 6 hour at 37°C. Growth media were replaced with completed DMEM medium buffered with carbonate. Cells were imaged for insertion of the peptide. […] Nuclei of the cells were stained with Hoechst stain (blue) B-Cells pretreated with pHLIP-TM219 peptide or pHLIP peptide alone for 5 days in 0.5% low melting agarose in DMEM complete media supplemented with 1 μM IGFBP3. The peptides were mixed with DMEM buffered with PBS and added to the spheroids grown in low melting agarose. After 6 hours, the media were replaced with completed DMEM media buffered with carbonate pH 7.2. Cells were incubated for additional 9 days at 37°C in a CO2 incubator. […] Living cells were assessed by Hoechst dye stain (Blue).

MCF7 cells = assay: pHLIP-Cy3 insertion into cell membrane, fluorescence microscopy, MCF7 cells; format: cell-based, human; details: pH 7.4 or pH 5.5, 5 min
Method: Fig 6 TM219 short cytoplasmic protein tail peptide disrupts the interaction between calmodulin and TM219 protein. […] As the concentration of the free peptide increased, the changes in FP signal decreased. […] B- MCF7 cells treated with pHLIP-cy3 peptide at pH 7.4 or pH 5.5 for 5 minutes. Cells were fixed and examined with fluorescence microscopy. […] Nuclei were stained with Hoechst dye (blue). C-MCF7 cells pretreated with either SCTT-pHLIP or pHLIP peptide alone were treated with 1μM IGFBP3 for 1hour in DMEM serum free medium. Cell lysates were subjected to immunoblot using anti-human phosphor-beclin1 antibody. […] TEXT PRINTED IN THE PICTURE: (A) unlabeled peptide: ki 0.02342 ± 0.001492 DOUBTS OF THE COPYIST ABOUT THIS PICTURE: Panel A, ki: no unit is printed with the value. The substance label 'unlabeled peptide' is taken from the printed x-axis title because the fit box names no substance. / Panel A: 'c 0.1 ± 0' in the fit box was left out as a fit parameter whose meaning is unclear.

[2] = system: cytosolic calcium in MCF7 cells; details: independent on IGF or heparin; ref [55]; cited from earlier work
Description: After that we compared the effects of IGFBP3 on elevation of intracellular calcium in these cells. […] However, no sign ...

[3] = system: cytosolic calcium in MCF7 cells; assay: cytosolic calcium, colorimetric kit, MCF7 cells; format: cell-based, human; details: 1 μM IGFBP3, 5 min, serum free
Method: We used a colorimetric kit to measure the increase in the cytosolic calcium in MCF7 cells according to the provider recommendations (Abcam). MCF7 cells were grown in completed DMEM medium at density of 5x10^5 cells/ml in 6 well plates. We compared the effects of 1μM IGFBP3 on the wild type, TM219 knockout and untreated MCF7 cells after 5 minutes in serum free medium. As a positive control we used […] ionomycin (Thermofishter Scientific). As a negative control we pretreated MCF7 cells with […] BAPTA for 30 minutes (Thermofisher Scientific). Experiments were run in triplicate.

[4] = system: TM219-calmodulin complex in THP1 cells; assay: co-immunoprecipitation of TM219 complex, anti-calmodulin immunoblot, THP1 cells; format: cell-based, human; details: 1 μM IGFBP3, 1 h, serum free
Method: For immunoprecipitation of TM219 complex, we treated 6X10^6 THP1 cells grown in Roswell park memorial institute 1640 medium (PRIM) without serum with 1 μM IGFBP3 for 1 hour. Cells were lysed with immunoprecipitation buffer (1% NP-40, 150 mM NaCl, and 50 mM Tris pH 8.4 in the presence of 2 X protease inhibitors (Roche)). Crosslinking of mouse anti-TM219 antibodies to protein A-Sepharose was performed as previously described. Briefly, 1 mg of the antibody was incubated with 1 ml protein A-Sepharose beads (Thermofisher scientific), with continuous mixing at 4°C for 2 h. The beads were then centrifuged and washed five times with PBS and once with 200 mM sodium borate, pH 9. Equal volumes of 40 mM dimethylsuberimidate (Thermofisher scientific) in 200 mM sodium borate were mixed with the beads, and the suspension was incubated, with continuous mixing, at room temperature for 30 min. The reaction was terminated by addition of equal volumes of 400 mM ethanolamine, and the sample was incubated for an additional 30 min. The beads were packed into a 1-cm-diameter column (Bio-RAD) and washed three times with 2 bed volumes of PBS and once with 4 bed volumes of 100 mM glycine-HCl at pH 2.4 to remove non-cross-linked antibodies. Finally, the cross-linked antibody beads were washed with PBS until the pH reached 7 and stored at 4°C in PBS containing 0.02% sodium azide. […]

[5] = fluorescence anisotropy control binding to empty nanodisc
Method: Reconstituted TM219 into 13 nm nanodisc and labeling of our purified calmodulin or IGFBP3 (R&D systems) with BODIPY-TRM-X-succinimidyl ester dye were described previously. […] Serial dilution of the TM219 short cytoplasmic peptide (1pM-10mM) was used. Fluorescence anisotropy assays were done in triplicates and data represent an average of three independent experiments. Each sample was run in triplicates and an average of 60 readings was used for calculation. Binding constants (KDs) or inhibition constant (Ki) were determined with Origin 7 (OriginLab) by fitting the data as described previously.

[6] = system: phospho-Beclin1 in MCF7 cells; assay: Beclin1 phosphorylation / autophagy immunoblot, MCF7 cells; format: cell-based, human; details: 1 μM IGFBP3, 1 h, serum free; wild type versus TM219 knockout; anti-phospho-beclin1, anti-LC3
Method: For phosphorylation assay of Beclin1 protein, we treated 6x10^6 MCF7 cells grown in DMEM serum free medium with 1 μM IGFBP3. Lysates were prepared in RIPA buffer in presence of 2X protease and phosphatase inhibitors (Thermofisher Scientific). Lysates were clarified by centrifugation at 10,000 rpm for 30 minutes at 4°C. Finally, the blotted membranes were probed with anti-TM219, LC3, calmodulin, phospho-beclin1, or β-actin. To quantify the ratio between LC3-II and LC3-I, we used an image densitometry method using ImageJ software.

[7] = system: TM219 complex (calmodulin, CaMKII) in MCF7 cells; assay: immunopurification of TM219 complex, anti-CaMKII / anti-calmodulin immunoblot, MCF7 cells; format: cell-based, human; details: 1 μM IGFBP3, versus untreated and normal mouse antibody beads
Vero cells = assay: DIC microscopy of internal vacuoles, Vero cells; format: cell-based; details: wild type versus TM219 knockout Vero cells; 1 μM IGFBP3, 1 h, serum free

With `CCN(CC)CCCC(C)Nc1ccnc2cc(Cl)ccc12` (centres unmarked) [chloroquine, reference compound] the “LC3-II punctate accumulation with chloroquine” value ([1]; 200 μM chloroquine plus 1 μM IGFBP3) was “this punctate stain was accumulated in the cytoplasm” and the “LC3-II punctate accumulation with chloroquine” value ([1]; 200 μM chloroquine plus 1 μM IGFBP3, listed as CQ) was “accumulates LCII positive vesicles in the cytoplasm of Vero cells”.

With “AEQNPIYWARYADWLFTTPLLLLDLALLVDADEGTC-s-s-C(cy3) [pHLIP-cy3]” the “insertion into plasma membrane of MDA-MB231 cells” value (MDA-MB231 cells) was “insertion of pHLIP-cy3 peptide into the plasma membrane of MAD-MB231 in both two dimension and three dimension cell cultures” and the “insertion into plasma membrane of MCF7 cells” value (MCF7 cells) was “Staining of the cells with red dye indicates insertion of pHLIP-cy3 into the cell membrane of MCF7 cells”.

For “Insulin-like growth factor binding protein 3 [IGFBP3]”, the “LC3 processing (LC3-II punctate staining)” value ([1]; Vero cells with LC3-mRFP, 1 μM IGFBP3, 1 h, serum free, mean +/- SEM plotted) is listed as “significant increase in processing of LC3; also recorded: significant increase in number of LCII punctate stain”, the “intracellular calcium release in MCF7 cells (previous studies)” value [2] is listed as “activates intracellular rapid release of intracellular calcium in MCF7 cells” and the “cytosolic calcium, TM219 knockout versus wild type” value [3] is listed as “no significant difference”. For the same compound, the cytosolic calcium ([3]; % of ionomycin reading, BAPTA reading subtracted) was “triggered elevation of the cytosolic calcium in MCF7 independent of TM219 receptor; also recorded: relatively higher signal of calcium relative to untreated MCF7 cells”, the “TM219-calmodulin complex formation (co-immunoprecipitation)” value [4] was “immunoprecipitation with anti-TM219 consistently brought down calmodulin” and the “binding of labelled IGFBP3 to empty nanodisc” value ([5]; empty nanodisc 0-2000 nM, fluorescence anisotropy) was “No specific binding was detected”. For the same compound, the “autophagy activation in MCF7 cells” value [6] was “activates autophagy in MCF7 cells”, the “association of calmodulin and CaMKII with TM219 complex” value [7] was “TM219 protein recruits calmodulin and calmodulin dependent kinase II after treatment with IGFBP3; also recorded: Purified proteins from cells treated with IGFBP3 reacted specifically with anti-CaMKII antibody” and the internal vacuoles (Vero cells) was “TM219 wild type Vero cells demonstrated larger internal vacuoles after treatment with IGFBP3 compared to TM219 knockout Vero cells; also recorded: wild type Vero cells showed larger internal vacuoles”.

With calmodulin the “binding of calmodulin to empty nanodisc” value ([5]; empty nanodisc 0-100 μM, 1 mM calcium chloride, 1 μM IGFBP3) was “No specific binding was detected; also recorded: No specific binding was observed”.
